{"source": "the NIST ThermoML archive (doi:10.1016/j.fluid.2005.05.015)", "conditions": "Crystal 1; visual observation", "note": "Numbers after ± are expanded uncertainties."}
{"smiles": "CC[N+](C)(C)CCO.[Br-]", "note": "[ethyl(2-hydroxyethyl)dimethylammonium bromide]", "values": [{"measurement": "Normal melting temperature", "value": "268.30 ± 1", "unit": "°C"}]}
